# According to patent publication US20120258945A1, “Association Between Ferroquine and an Artemisinine Derivative for Treating Malaria” (priority 2005, published 2012):
# Columns and labels:
# [1] = test system: Plasmodium vinckei vinckei; test: In vivo activity in mice infected with Plasmodium vinckei vinckei: parasitaemia at D4 after 4 days of oral treatment
# Description: Female “Swiss” mice, aged eight weeks and one day, are inoculated with parasites of Plasmodium vinckei vinckei type (Rodhain, 1952). The mice are acclimatized beforehand for two weeks. The mice are given food and drink ad libitum.
# The Plasmodium vinckei vinckei strain is maintained by weekly infection in the mouse with 10^7 parasitized erythrocytes suspended in a phosphate buffered saline (0.9%).
# (§1) This administration is repeated on the following three days (D1 to D3) (Peter, 1987). When the two products are administered in combination, the artesunate is administered first, the ferroquine is administered second, 45 minutes later. On the fourth day, a blood smear is taken from the tail of the mouse. The sample is fixed on a plate. The number of parasitized blood cells is counted under a microscope. The parasitaemia is expressed as percentage of infected erythrocytes present in the sample on a sample of 1000 cells. Six or seven mice are used per dose.
# The IC50 is defined as the concentration in mg/kg/day which inhibits the blood parasitaemia by 50% at the fourth day (D4) after infection (D0) and four days of treatment (D0,D1,D2,D3). 0% inhibition corresponds to the mean of the parasitaemias observed in the untreated infected mice. […]
# The IC50 of ferroquine is determined after administration of concentrations of between 1 and 10 mg/kg/day. […]
# [2] = test system: Plasmodium vinckei vinckei; test: Mortality / survival and curative dose in mice infected with Plasmodium vinckei vinckei; assay type: in vivo; conditions: oral, 4 days of treatment, compounds administered separately
# Description: as §1, with “On the first day of treatment (D0), one hour after infection (10^7 parasitized erythrocytes suspended in a phosphate buffered saline (0.9%)), the animal is administered, orally, as appropriate, with ferroquine, with artesunate or with a mixture of the two active ingredients. This” for “This”
# Each day, from day 5 after infection, the number of dead mice is counted so as to determine the percentage mortality (number of mice dead relative to the number of mice of the batch considered). The curative dose is the first dose at which all the mice of the batch survive.
compound,measurement,setting,value
C[C@@H]1CC[C@H]2[C@@H](C)C(OC(=O)CCC(=O)[O-])O[C@@H]3O[C@]4(C)CC[C@@H]1C32OO4.[Na+] (stereo partly drawn) [artesunate],IC50 (dose which inhibits the blood parasitaemia by 50% at D4),"[1]; 4 days of treatment (D0-D3), parasitaemia at D4, compounds administered separately, linear interpolation of dose-response curve",2.79 mg/kg/day
same,"Parasitaemia (as %), mean","[1]; artesunate 6 mg/kg/day alone (ferroquine 0), 4 days, infected erythrocytes at fourth day after infection",7.1%
same,curative dose (first dose at which all the mice of the batch survive),[2],greater than 15 mg/kg/day
